Patent US9944678B2, “Immunomodulators” (BRISTOL-MYERS SQUIBB COMPANY, priority 2014, dated 2018)
Starred links: 1 amine or outer side, 2 acyl side, 3 side chain; linkers in the order of their positions; H or OH if unused. Positions of bridges follow the written chain, without caps; N, C: chain ends. Non-standard residues stand in square brackets, D forms with d. Residues, ends and D or L forms follow the SMILES beside them. ξ: configuration not given here. X2 = CC[C@H]1C[C@@]1(N[*:1])C(=O)[*:2]; X4 = C[C@H]1C[C@@]1(N[*:1])C(=O)[*:2]; Bta = N[C@@H](Cc1csc2ccccc12)C(=O)O; X3 = C[C@H]1CC1(N[*:1])C(=O)[*:2]; Hyp = O=C(O)[C@@H]1C[C@@H](O)CN1; NMeNle = CCCC[C@H](NC)C(=O)O; NMeA = CN[C@@H](C)C(=O)O; Ac5c = NC1(C(=O)O)CCCC1; Dab = NCC[C@H](N)C(=O)O; ξC = NC(CS)C(=O)O

Target: T1, PD-1-Ig binding to PD-L1-TVMV-His (PD-L1-His) (Homo sapiens, UniProt Q9NZQ7)
T1 construct: hPDL1(19-239)-TVMV-His; TVMV protease cleavage site (C); made in house; host or cells: HEK293T cells
T1 sequence (Q9NZQ7 with tags, fused parts or gaps): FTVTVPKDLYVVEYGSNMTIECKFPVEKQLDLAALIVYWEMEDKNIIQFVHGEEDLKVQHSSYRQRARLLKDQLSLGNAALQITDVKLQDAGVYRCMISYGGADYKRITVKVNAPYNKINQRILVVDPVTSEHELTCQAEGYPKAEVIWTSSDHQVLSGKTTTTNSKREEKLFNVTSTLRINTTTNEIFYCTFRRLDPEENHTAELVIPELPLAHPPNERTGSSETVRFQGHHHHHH
Assay: PD-1/PD-L1 Homogenous Time-Resolved Fluorescence (HTRF) binding assay
Conditions: PD-1-Ig/PD-L1-His binding; values given as range classes
Excerpt: The ability of the macrocyclic peptides of the present disclosure to bind to PD-L1 was investigated using a PD-1/PD-L1 Homogenous Time-Resolved Fluorescence (HTRF) binding assay.
Homogenous Time-Resolved Fluorescence (HTRF) Assays of Binding of Soluble PD-1 to Soluble PD-L1. Soluble PD-1 and soluble PD-L1 refers to proteins with carboxyl-end truncations that remove the transmembrane-spanning regions and are fused to heterologous sequences, specifically the Fc portion of the human immunoglobuling G sequence (Ig) or the hexahistidine epitope tag (His). All binding studies were performed in an HTRF assay buffer consisting of dPBS supplemented with 0.1% (w/v) bovine serum albumin and 0.05% (v/v) Tween-20. For the PD-1-Ig/PD-L1-His binding assay, inhibitors were pre-incubated with PD-L1-His (10 nM final) for 15 m in 4 μl of assay buffer, followed by addition of PD-1-Ig (20 nM final) in 1 μl of assay buffer and further incubation for 15 m. PD-L1 fusion proteins from either human, cynomologous macaques, mouse, or other species were used. HTRF detection was achieved using europium crypate-labeled anti-Ig monoclonal antibody (1 nM final) and allophycocyanin (APC) labeled anti-His monoclonal antibody (20 nM final). Antibodies were diluted in HTRF detection buffer and 5 μl was dispensed on top of binding reaction. The reaction was allowed to equilibrate for 30 minutes and signal (665 nm/620 nm ratio) was obtained using an EnVision fluorometer. Additional binding assays were established between PD-1-Ig/PD-L2-His (20 and 5 nM, respectively), CD80-His/PD-L1-Ig (100 and 10 nM, respectively) and CD80-His/CTLA4-Ig (10 and 5 nM, respectively). Binding/competition studies between biotinylated Compound No. 71 and human PD-L1-His were performed as follows. Macrocyclic peptide inhibitors were pre-incubated with PD-L1-His (10 nM final) for 60 minutes in 4 μl of assay buffer followed by addition of biotinylated Compound No. 71 (0.5 nM final) in 1 μl of assay buffer. Binding was allowed to equilibrate for 30 minutes followed by addition of europium crypated labeled Streptavidin (2.5 pM final) and APC-labeled anti-His (20 nM final) in 5 μl of HTRF buffer. The reaction was allowed to equilibrate for 30 m and signal (665 nm/620 nm ratio) was obtained using an EnVision fluorometer.
Recombinant Proteins. Carboxyl-truncated human PD-1 (amino acids 25-167) with a C-terminal human Ig epitope tag [hPD-1 (25-167)-3S-IG] and human PD-L1 (amino acids 18-239) with a C-terminal His epitope tag [hPD-L1(19-239)-tobacco vein mottling virus protease cleavage site (TVMV)-His] were expressed in HEK293T cells and purified sequentially by recombinant Protein A affinity chromatography and size exclusion chromatography. Human PD-L2-His (Sino Biologicals), CD80-His (Sino Biologicals), CTLA4-Ig (RnD Systems) were all obtained through commercial sources.
Ranges are as follows: A=0.10-10 μM; B=0.01-0.099 μM; C=0.004-0.0099 μM.

Q: For `CCCC[C@H]1C(=O)N(C)[C@@H](CCCC)C(=O)N[C@@H](CCCNC(=N)N)C(=O)N[C@H](C(=O)NCC(N)=O)CSCC(=O)N[C@@H](Cc2ccccc2)C(=O)N(C)[C@@H](C)C(=O)N[C@@H](CC(N)=O)C(=O)N2CCC[C@H]2C(=O)N[C@@H](Cc2cnc[nH]2)C(=O)N[C@@H](CC(C)C)C(=O)NC2(CCCC2)C(=O)N[C@@H](Cc2c[nH]c3ccccc23)C(=O)N[C@@H](CO)C(=O)N[C@@H](Cc2c[nH]c3ccccc23)C(=O)N1C` [Example 1001], which IC50 is on record?
A: The IC50 was 100 to 10000 nM.

Q: Which IC50 does the source give for `CCCC[C@H]1C(=O)N(C)[C@@H](CCCC)C(=O)N[C@@H](CCCNC(=N)N)C(=O)NC(C(=O)NCC(N)=O)CSCC(=O)N[C@@H](Cc2ccc(O)cc2)C(=O)N(C)[C@@H](C)C(=O)N[C@@H](CC(N)=O)C(=O)N[C@]2(C[C@@H]2CC)C(=O)N[C@@H](Cc2cnc[nH]2)C(=O)N[C@@H](CC(C)C)C(=O)N2C[C@H](O)C[C@H]2C(=O)N[C@@H](Cc2c[nH]c3ccccc23)C(=O)N[C@@H](CO)C(=O)N[C@@H](Cc2c[nH]c3ccccc23)C(=O)N1C` (stereo partly shown) [Example 10009] ({CH2CO}-Y[NMeA]N[X2]HL[Hyp]WSW[NMeNle][NMeNle]R[ξC]G-NH2; thioether N-14) here?
A: Its IC50 is 100 to 10000 nM.

Q: With `CCCC[C@H]1C(=O)N(C)[C@@H](CCCC)C(=O)N[C@@H](CCCNC(=N)N)C(=O)NC(C(=O)NCC(N)=O)CSCC(=O)N[C@@H](Cc2ccc(O)cc2)C(=O)N(C)[C@@H](C)C(=O)N[C@@H](CC(N)=O)C(=O)N[C@]2(C[C@@H]2CC)C(=O)N[C@@H](Cc2cnc[nH]2)C(=O)N[C@@H](CC(C)C)C(=O)N2C[C@H](O)C[C@H]2C(=O)N[C@@H](Cc2c[nH]c3ccccc23)C(=O)N[C@@H](CO)C(=O)N[C@@H](Cc2csc3ccccc23)C(=O)N1C` (stereo partly shown) [Example 10008] ({CH2CO}-Y[NMeA]N[X2]HL[Hyp]WS[Bta][NMeNle][NMeNle]R[ξC]G-NH2; thioether N-14) as the compound, how does the IC50 read?
A: The IC50 was 10 to 99 nM.

Q: Which IC50 does the source give for `CCCC[C@H]1C(=O)N(C)[C@@H](CCCC)C(=O)N[C@@H](CC(C)C)C(=O)N[C@H](C(=O)NCC(N)=O)CSCC(=O)N[C@@H](Cc2ccc(O)cc2)C(=O)N(C)[C@@H](C)C(=O)N[C@@H](CC(N)=O)C(=O)N2CCC[C@H]2C(=O)NC2(CCCC2)C(=O)N[C@@H](CC(C)C)C(=O)N2C[C@H](O)C[C@H]2C(=O)N[C@@H](Cc2c[nH]c3ccccc23)C(=O)N[C@@H](CCN)C(=O)N[C@@H](Cc2c[nH]c3ccccc23)C(=O)N1C` [Example 9017] ({CH2CO}-Y[NMeA]NP[Ac5c]L[Hyp]W[Dab]W[NMeNle][NMeNle]LCG-NH2; thioether N-14) here?
A: The IC50 was 10 to 99 nM.

Q: With `CCCC[C@H]1C(=O)N(C)[C@@H](CCCC)C(=O)N[C@@H](CCCNC(=N)N)C(=O)NC(C(=O)NCC(N)=O)CSCC(=O)N[C@@H](Cc2ccc(O)cc2)C(=O)N(C)[C@@H](C)C(=O)N[C@@H](CC(N)=O)C(=O)N[C@]2(C[C@@H]2C)C(=O)N[C@@H](Cc2cnc[nH]2)C(=O)N[C@@H](CC(C)C)C(=O)N2C[C@H](O)C[C@H]2C(=O)N[C@@H](Cc2c[nH]c3ccccc23)C(=O)N[C@@H](CO)C(=O)N[C@@H](Cc2csc3ccccc23)C(=O)N1C` (stereo partly shown) [Example 10004] ({CH2CO}-Y[NMeA]N[X4]HL[Hyp]WS[Bta][NMeNle][NMeNle]R[ξC]G-NH2; thioether N-14) as the compound, how does the IC50 read?
A: Its IC50 is 10 to 99 nM.

Q: Which IC50 does the source give for `CCCC[C@H]1C(=O)N(C)[C@@H](CCCC)C(=O)N[C@@H](CCCNC(=N)N)C(=O)NC(C(=O)NCC(N)=O)CSCC(=O)N[C@@H](Cc2ccc(O)cc2)C(=O)N(C)[C@@H](C)C(=O)N[C@@H](CC(N)=O)C(=O)N2C[C@H](O)C[C@H]2C(=O)N[C@@H](Cc2cnc[nH]2)C(=O)N[C@@H](CC(C)C)C(=O)NC2(C[C@@H]2C)C(=O)N[C@@H](Cc2c[nH]c3ccccc23)C(=O)N[C@@H](CO)C(=O)N[C@@H](Cc2csc3ccccc23)C(=O)N1C` (stereo partly shown) [Example 10006] ({CH2CO}-Y[NMeA]N[Hyp]HL[X3]WS[Bta][NMeNle][NMeNle]R[ξC]G-NH2; thioether N-14) here?
A: The IC50 was 100 to 10000 nM.

Test system: not given
Assay: not given
Conditions: oral formulation ENTOCORT EC, extensive first-pass metabolism; cited from earlier work

Q: Which bioavailability does the source give for `CCCC1O[C@@H]2C[C@H]3[C@@H]4CCC5=CC(=O)C=C[C@]5(C)[C@H]4[C@@H](O)C[C@]3(C)[C@]2(C(=O)CO)O1` (stereo partly shown) [budesonide] here?
A: Its bioavailability is “about 10%”.
